Nine molecules from patent publication US20240409935A1, “Atg8ylation coordinates stress granule formation and mTOR inactivation in response to lysosomal damage” (priority 2023, published 2024) can be followed below.

Residues, ends and D or L forms follow the SMILES beside them. *: point of attachment. βNA = c1ccc2cc(N*)ccc2c1

The test system of series [1] is human peripheral blood monocyte-derived macrophages (hMDM). The conditions noted are these: 1 μg/ml cycloheximide.
The test system of series [2] is U2OS cells. Put plainly: LDH release assay in U2OS cells. The series is classed as cell-based, human. The conditions noted are these: LLOMe plus cycloheximide. An excerpt: How does SG formation affect cell fate during lysosomal damage? The inventors utilized SG deficient U2OS cells (human osteosarcoma epithelial cell line) genetically lacking both G3BP1 and G3BP2 (ΔΔG3BP1/2) (Nancy Kedersha et al., 2016), which are essential factors for SG formation (Guillén-Boixet et al., 2020; Nancy Kedersha et al., 2016; P. Yang et al., 2020) (FIG. 7SA). The inventors quantified the number of SGs using the canonical SG marker polyA RNA (Ivanov et al., 2019) via high-content microscopy (HCM) (FIG. S1B) and verified the depletion of SG formation in ΔΔG3BP1/2 cells when exposed to the lysosome-specific damaging agent L-leucyl-L-leucine methyl ester (LLOMe) (Jia et al., 2022; Tan et al., 2022; Thiele et al., 1990) (FIG. 7SB). A propidium iodide (PI) uptake assay measuring plasma membrane integrity (Crowley et al., 2016; Liu et al., 2023) was adapted to quantify cell survival during lysosomal damage using HCM. […] This was additionally confirmed by using a lactate dehydrogenase (LDH) release assay measuring non-specific leak from cells (Chan et al., 2013; Kumar et al., 2018) (FIG. 1B). […] Elevated cell death, as quantified by PI uptake assay (FIG. 1F (i, iii)) and the LDH release assay (FIG. 1G), was detected in G3BP1/2^DKD in response to LLOMe treatment. […]

Series [3] concerns G3BP1 puncta (stress granules) in U2OS cells. The series can be described thus: HCM quantification of G3BP1 puncta (stress granule formation) in U2OS cells. The class given is cell-based, human. The conditions noted are these: for SG formation response (G3BP1 puncta): agent alone for 30 min (2 mM LLOMe, 200 μM GPN, 400 μg/mL silica, 4 mM LOMe).
Series [4] has as its system human peripheral blood monocyte-derived macrophages (hMDM). The conditions noted are these: hemozoin (10.0 mg/mL) 4 h, 1 μg/ml cycloheximide.
Series [5] has the same test system. Put plainly: PI uptake cell death assay (HCM) in hMDM. The series is classed as cell-based. Here is the method:
Cells Were treated with 2 mM LLOMe for 30 min, and then stained with propidium iodide (PI) (dead cells) and Hoechst-33342 (total cells). White masks, algorithm-defined cell boundaries (primary objects); red masks, computer-identified PI^+ nuclei (target objects). […] Cells Were treated with 2 mM LLOMe for 30 min. […] Cells Were treated with 2 mM in the presence or absence of 10 μg/ml cycloheximide (CHX) for 30 min, and then stained with PI (dead cells) and Hoechst-33342 (total cells). […] Scale bar, 10 μm. […] Cells Were treated with 2 mM LLOMe with or without CHX for 30 min, and then stained using Live/Dead™ stain kit (ThermoFisher). […] Cells Were treated with 2 mM LLOMe for 30 min, and then stained with PI (dead cells), Hoechst-33342 (total cells) or eIF4G. (i) HCM images: white masks, algorithm-defined cell boundaries; green masks, computer-identified eIF4G puncta; red masks, computer-identified PI^+ nuclei (target objects); (ii and iii) corresponding HCM quantification. […] Cells Were treated with 2 mM LLOMe for 30 min. […] CTR, control; NT, untreated cells. Data, means±SEM (n=3); HCM: n≥3 (each experiment: 500 valid primary objects/cells per Well, ≥5 Well s/sample). †p≥0.05 (not significant), *p<0.05, **p<0.01, ANOVA. See also FIG. 7S.
(§1) FIGS. 12SA-12SF. Stress granules are important for cell survival in response to lysosomal damage in disease states. […] White masks, algorithm-defined cell boundaries; red masks, computer-identified LTR puncta. […] White masks, algorithm-defined cell boundaries; green masks, computer-identified ALIX puncta. […] White masks, algorithm-defined cell boundaries; red masks, computer-identified G3BP1 puncta. […] Cells Were treated with 200 μg/mL silica for 4 h in the presence or absence of 100 nM ISRIB, and then stained with propidium iodide PI (dead cells) and Hoechst-33342 (total cells). White masks, algorithm-defined cell boundaries; red masks, computer-identified PI^+ nuclei. […]

Series [6] has as its system G3BP1 puncta in THP-1 cells. The series can be described thus: Stress granule formation in THP-1 cells. The class given is cell-based, human. Here is the method: as §1
How does SG formation affect cell fate during lysosomal damage? […] The inventors quantified the number of SGs using the canonical SG marker polyA RNA (Ivanov et al., 2019) via high-content microscopy (HCM) (FIG. S1B) and verified the depletion of SG formation in ΔΔG3BP1/2 cells when exposed to the lysosome-specific damaging agent L-leucyl-L-leucine methyl ester (LLOMe) (Jia et al., 2022; Tan et al., 2022; Thiele et al., 1990) (FIG. 7SB). A propidium iodide (PI) uptake assay measuring plasma membrane integrity (Crowley et al., 2016; Liu et al., 2023) was adapted to quantify cell survival during lysosomal damage using HCM. […]

Series [7] deals with THP-1 cells. Put plainly: Cell survival of THP-1 cells. The class given is cell-based.
The subject of series [8] is ATF4. Put plainly: ATF4 expression in THP-1 cells. The series is classed as cell-based, human.
In series [9] the test system is ALIX puncta in U2OS cells. The series can be described thus: HCM quantification of ALIX puncta in U2OS cells. The class given is cell-based, human. The conditions noted are these: 15 μM BAPTA-AM for 1 h, then 2 mM LLOMe for 30 min. The method, then: Cells Were treated with 2 mM LLOMe for 30 min. White masks, algorithm-defined cell boundaries; red masks, computer-identified G3BP1 puncta. […] Cells Were treated with 2 mM LLOMe for 30 min. White masks, algorithm-defined cell boundaries; green masks, computer-identified ALIX puncta. NT, untreated cells. Data, means±SEM (n=3); HCM: n≥3 (each experiment: 500 valid primary objects/cells per Well, ≥5 Well s/sample). †p≥0.05 (not significant), **p<0.01, ANOVA. See also FIG. 11.

In series [10] the test system is eIF2α (S51) phosphorylation. Put plainly: Immunoblot analysis of eIF2α (S51) phosphorylation in U2OS cells. The class given is cell-based, human. In general terms: Immunoblotting shows a protein as a band on a membrane.
Series [11] deals with mTOR. The series can be described thus: mTOR/mTORC1 activity by phosphorylation of its substrates (4EBP1 S65, ULK1 S757, S6K1 T389) in U2OS cells. The class given is cell-based, human.
Series [12] concerns Galectin-3 puncta in BMM cells. The class given is cell-based, murine.
Series [13] concerns NUFIP2, G3BP1 and TIA1 on lysosomes. The class given is cell-based, human.
For series [14], the system named is TFEB. The series can be described thus: TFEB nuclear translocation (HCM) and TFEB (S142) phosphorylation in Huh7 cells. The class given is cell-based, human. The conditions noted are these: 530 nM AZD6244 for 2 h, 1 mM LLOMe for 30 min. Here is the method:
FIGS. 2SA-2SG show the cellular transcriptional response during lysosomal damage. FIG. 2SA RNAseq analysis of the change on gene expression in HEK293T cells in response to 1 mM LLOMe treatment for 30 min. […] The dotted line indicates the significance cut-off (P<0.05). […] Ctrl, control (untreated cells). […] Blue: nuclei, Hoechst 33342. Red: anti-TFEB antibody, Alexa Fluor 568. White masks, computer-algorithm-defined cell boundaries. Pink masks, computer-identified nuclear TFEB based on the average intensity of Alexa Fluor 568 fluorescence. […] Red masks, computer-identified G3BP1 puncta. […] Red masks, computer-identified G3BP1 puncta. Ctrl, control (untreated cells). Data, means±SEM; HCM: n≥3 (each experiment: 500 valid primary objects/cells per Well, ≥5 Well s/sample). **p<0.01, ANOVA.

The subject of series [15] is PKR. Put plainly: LysoIP immunoblotting of PKR and eIF2α phosphorylation on damaged lysosomes from HEK293T cells. The series is classed as cell-based, human. The conditions noted are these: 1 mM LLOMe with 210 nM imidazolo-oxindole C16 for 1 h.

Turning to `C[C@@H]1C[C@@H]([C@H](O)CC2CC(=O)NC(=O)C2)C(=O)[C@@H](C)C1` [cycloheximide], in series [1] (10 μg/mL tau oligomer for 4 h), the “cell death (AMNIS, Live/Dead) during tau oligomer treatment, with cycloheximide” value is reported as “augmented cell death”. Besides, in series [1] (200 μg/mL silica for 4 h), the “cell death (AMNIS, Live/Dead) during silica treatment, with cycloheximide” value is given as “augmented cell death”. Moreover, the “cell survival by LDH release, with cycloheximide during lysosomal damage” value in [2] was “increased LDH release”. Besides, in series [3], the “SG formation (G3BP1 puncta) following LLOMe treatment, with cycloheximide” value was “inhibited SG formation”. The “cell death by LDH release assay in response to hemozoin, with cycloheximide” value in series [4] is “increased cell death”. Moreover, in series [5] (2 mM LLOMe with 10 μg/ml cycloheximide for 30 min), the “cell death by PI uptake assay during LLOMe treatment, with cycloheximide” value was “significant increase in cell death”.

For the molecule `O=C(COc1ccc(Cl)cc1)N[C@H]1CC[C@@H](NC(=O)COc2ccc(Cl)cc2)CC1` [ISRIB, N,N′-((1s,4s)-cyclohexane-1,4-diyl)bis(2-(4-chlorophenoxy)acetamide)], the “SG formation upon lysosomal damage, with ISRIB” value in [6] is “prevented SG formation”. Also, the “cell death by PI uptake assay during tau oligomer treatment, with ISRIB” value in series [5] (10 μg/mL tau oligomer for 4 h, 100 nM ISRIB) is recorded as “comparable effect on cell death”. Further, the “cell death by PI uptake assay during silica treatment, with ISRIB” value in [5] (200 μg/mL silica for 4 h, 100 nM ISRIB) is reported as “comparable effect on cell death”. For the same molecule, in series [7], the “cell survival upon lysosomal damage, with ISRIB” value is listed as “decrease in cell survival”. Also, in series [8], the “ATF4 expression levels upon lysosomal damage, with ISRIB” value is “reduction in ATF4 expression levels”.

As for `COC(=O)[C@@H](N)CC(C)C` [LOMe], in series [3], the “SG formation response (G3BP1 puncta)” value is “did not induce SG formation”.

Consider `CC(=O)OCOC(=O)CN(CC(=O)OCOC(C)=O)c1ccccc1OCCOc1ccccc1N(CC(=O)OCOC(C)=O)CC(=O)OCOC(C)=O` [BAPTA-AM], for which, in series [3] (15 μM BAPTA-AM for 1 h, then 2 mM LLOMe for 30 min), the “SG formation during lysosomal damage, with BAPTA-AM” value was “significant reduction in SG formation”. For the same molecule, in [9], the “ALIX puncta formation upon lysosomal damage, with BAPTA-AM” value is “decrease in ALIX puncta formation”. The “eIF2α phosphorylation during lysosomal damage, with BAPTA-AM” value in series [10] (U2OS cells, 15 μM BAPTA-AM for 1 h, then 2 mM LLOMe for 30 min) is listed as “significant reduction”.

For `Nc1ncc2[nH]cnc2n1` [2-AP, 2-aminopurine], the “SG formation in response to LLOMe treatment, with 2-AP” value in series [3] (2-AP for 1 h followed by 2 mM LLOMe for 30 min) is on record as “inhibited, in a dose-response fashion, SG formation”. For the same molecule, the “eIF2α phosphorylation in cells treated with LLOMe, with PKR inhibitor” value in series [10] (U2OS cells, 2-AP for 1 h followed by 2 mM LLOMe for 30 min) is reported as “inhibited eIF2α phosphorylation”.

On to `O=[As][O-].[Na+]` [arsenite, NaAsO2], for which the “mTORC1 activity under arsenic stress” value in series [11] is on record as “activating mTORC1 activity”. In addition, in series [12], the “lysosomal damage monitored by Galectin-3 response” value is listed as “did not induce lysosomal damage”. Also, the “enrichment of NUFIP2, G3BP1 and TIA1 on purified lysosomes” value in series [13] is recorded as “not on lysosomes purified from cells treated with arsenite”. The “eIF2α phosphorylation under arsenic stress” value in [10] was “led to eIF2α phosphorylation”.

`NCC(=O)N[C@@H](Cc1ccccc1)C(=O)Nc1ccc2ccccc2c1` [GPN, glycyl-L-phenylalanine-2-naphthyl amide] (H-Gly-Phe-βNA): the “SG formation response (G3BP1 puncta)” value in series [3] is recorded as “strong SG formation response”.

On to `Cn1cnc2c(F)c(Nc3ccc(Br)cc3Cl)c(C(=O)NOCCO)cc21` [AZD6244], for which the “nuclear translocation of TFEB and dephosphorylation at Ser142: lysosomal damage compared with AZD6244” value in series [14] is “equal in magnitude”.

For the molecule `O=C1Nc2ccc3ncsc3c2/C1=C/c1cnc[nH]1` [imidazolo-oxindole C16], the “phosphorylation of both PKR and eIF2α on damaged lysosomes, with C16” value in series [15] is reported as “effectively blocked”. Moreover, in series [3] (210 nM imidazolo-oxindole C16 for 2 h followed by 2 mM LLOMe for 30 min), the “SG formation during lysosomal damage, with C16” value is on record as “reduced SG formation”.
